The record followed here is patent publication US11345694B2, “Antibacterial compounds” (DISCUVA LTD., priority 2017, dated 2022).

Structures are written as SMILES. In brackets after ≈: the same amount, converted by molar mass.

Experiment [1] deals with K. pneumoniae H154020667 (KP6). The experiment can be described thus: MIC broth microdilution. Format: cell-based, Klebsiella pneumoniae. Particulars: Klebsiella pneumoniae. In short, it runs like this: (§1)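 CLSI broth microdilution with two-fold compound series, 0.39-200 μM final, at most 2% DMSO. Strains grown in cation-adjusted Müller-Hinton broth at 37 °C, ambient air. MIC taken as lowest concentration inhibiting growth after 20-24 h.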
In general terms: In broth dilution the organism is exposed to a series of concentrations in liquid medium.

The test system of experiment [2] is K. pneumoniae NCTC 13438 (KP1). The experiment can be described thus: MIC broth microdilution. The experiment is classed as cell-based, Klebsiella pneumoniae. To be noted: Klebsiella pneumoniae, NCTC13438. In short, it runs like this: as §1
Experiment [3] concerns K. pneumoniae H151440671 (KP10). As to the kind of experiment: MIC broth microdilution. Format: cell-based, Klebsiella pneumoniae. To be noted: Klebsiella pneumoniae. In short, it runs like this:
as §1

The test system of experiment [4] is K. pneumoniae H154600588 (KP8). As to the kind of experiment: MIC broth microdilution. Format: cell-based, Klebsiella pneumoniae. Particulars: Klebsiella pneumoniae. Summed up:
as §1

Experiment [5] concerns K. pneumoniae ATCC 700603 (KP3). As to the kind of experiment: MIC broth microdilution. The experiment is classed as cell-based, Klebsiella pneumoniae. To be noted: Klebsiella pneumoniae, ATCC700603. Summed up: as §1
Experiment [6] relates to K. pneumoniae H154300688 (KP9). As to the kind of experiment: MIC broth microdilution. Format: cell-based, Klebsiella pneumoniae. To be noted: Klebsiella pneumoniae. In short, it runs like this: as §1
Experiment [7] relates to K. pneumoniae H154640784 (KP7). As to the kind of experiment: MIC broth microdilution. The experiment is classed as cell-based, Klebsiella pneumoniae. Particulars: Klebsiella pneumoniae. In short, it runs like this: as §1
The test system of experiment [8] is K. pneumoniae H154680676 (KP5). As to the kind of experiment: MIC broth microdilution. Format: cell-based, Klebsiella pneumoniae. To be noted: Klebsiella pneumoniae. In short, it runs like this:
as §1

For experiment [9], the system named is Pseudomonas aeruginosa ATCC 33359 (PA). The experiment can be described thus: MIC broth microdilution. The experiment is classed as cell-based. Particulars: ATCC33359. Summed up: (§2)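 Broth microdilution following CLSI M07-A10, two-fold serial compound dilutions spanning 0.39-200 μM final, DMSO at most 2% final, in cation-adjusted Müller-Hinton broth at 37° C., ambient air. MIC taken as lowest concentration inhibiting growth after 20-24 h incubation.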

Experiment [10] has as its system Acinetobacter baumannii ATCC 17978 (AB). The experiment can be described thus: MIC broth microdilution. The experiment is classed as cell-based. Particulars: ATCC17978. In short, it runs like this: as §2
For experiment [11], the system named is Serratia marcescens SL1344 (Sm). The experiment can be described thus: MIC broth microdilution. Format: cell-based. Summed up:
as §2

In experiment [12] the test system is Salmonella typhimurium XNAA5 (St). The experiment can be described thus: MIC broth microdilution. The experiment is classed as cell-based. Particulars: Salmonella enterica. In short, it runs like this: as §2
For experiment [13], the system named is Enterobacter cloacae DSM 30054 (Ed). The experiment can be described thus: MIC broth microdilution. Format: cell-based. Particulars: DSM30054. Summed up: as §1
The subject of experiment [14] is Escherichia coli K12 (EC). As to the kind of experiment: MIC broth microdilution. The experiment is classed as cell-based. Summed up:
as §2

For experiment [15], the system named is Staphylococcus aureus ATCC 35556 (SA). As to the kind of experiment: MIC broth microdilution. Format: cell-based. To be noted: ATCC35556. In short, it runs like this:
as §2

Experiment [16] has as its system Klebsiella pneumoniae ATCC 10031 (KP2). The experiment can be described thus: MIC broth microdilution. The experiment is classed as cell-based. To be noted: ATCC10031. Summed up:
as §1

Experiment [17] has as its system human hepatocarcinoma cell line ATCC HB-8065 (HepG2). The experiment can be described thus: Human cell viability (CellTiter-Glo). Format: cell-based. To be noted: Homo sapiens; HepG2 cells, 24 h incubation, CellTiter-Glo luminescence, 0.2-100 μM; read-out: IC50 values against the HepG2 cell line. Summed up: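 Cytotoxicity was read as CellTiter-Glo luminescence after 24 h compound exposure at 37° C., 5% CO2. Final concentrations spanned 0.2-100 μM in two-fold steps, in 1% FBS MEM with 1% DMSO, on cells plated a day earlier at 20,000/well. IC50 came from 4-parameter logistic regression.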
(In general: ATP-based viability assays read luminescence as a measure of living cells.)

Experiment [18] deals with E. coli NCTC 13441 (UPEC). As to the kind of experiment: MIC broth microdilution. Format: cell-based, Escherichia coli. To be noted: Escherichia coli, NCTC13441. In short, it runs like this:
as §2

On to `Cc1cc(-c2[nH]c(N)nc2-c2ccc3c(c2)OCCO3)ccn1` [Example 23, 4-(2,3-Dihydrobenzo[b][1,4]dioxin-6-yl)-5-(2-methylpyridin-4-yl)-1H-imidazol-2-amine], for which the MIC was not above 1 µM in experiment [1]; 1 to 10 µM (≈ 0.308 to 3.08 µg/mL) in experiment [2]; not above 1 µM in experiment [3]; 1 to 10 µM (≈ 0.308 to 3.08 µg/mL) in experiment [4]; 1 to 10 µM (≈ 0.308 to 3.08 µg/mL) in experiment [5]; not above 1 µM in experiment [6]. Moreover, the MIC in experiment [7] was 1 to 10 µM (≈ 0.308 to 3.08 µg/mL); in experiment [8], not above 1 µM; in experiment [9], more than 100 µM; in experiment [10], more than 100 µM; in [11], 1 to 10 µM (≈ 0.308 to 3.08 µg/mL); in [12], not above 1 µM. Moreover, the minimum inhibitory concentration (MIC) in [13] was not above 1 µM; in experiment [14], not above 1 µM; in experiment [15] it was more than 100 µM; in [16], not above 1 µM; in experiment [18], not above 1 µM. In addition, the half-maximal inhibitory concentration (IC50) in [17] was more than 100 µM.
Regarding `Cc1cc(-c2[nH]c(N)nc2-c2ccc(OCc3ccc(F)cc3)nc2)ccn1` [Example 28, 4-(6-((4-Fluorobenzyl)oxy)pyridin-3-yl)-5-(2-methylpyridin-4-yl)-1H-imidazol-2-amine], the minimal inhibitory concentration (MIC) in [1] was not above 1 µM; in experiment [2], 1 to 10 µM (≈ 0.375 to 3.75 µg/mL); in experiment [3], not above 1 µM; in experiment [4], 1 to 10 µM (≈ 0.375 to 3.75 µg/mL); in experiment [5], 1 to 10 µM (≈ 0.375 to 3.75 µg/mL); in [6] it was not above 1 µM. Besides, the MIC is 1 to 10 µM (≈ 0.375 to 3.75 µg/mL) in experiment [7]; not above 1 µM in experiment [8]; more than 100 µM in experiment [9]; more than 100 µM in experiment [10]; not above 1 µM in experiment [11]; not above 1 µM in [12]. Also, the MIC in experiment [13] was not above 1 µM; in experiment [14], not above 1 µM; in [15] it was more than 100 µM; in experiment [16] it was not above 1 µM; in [18], not above 1 µM. In experiment [17], the 50% inhibitory concentration (IC50) was 25 to 100 µM.
Turning to `Cc1cc(-c2[nH]c(N)nc2-c2ccc3c(c2)CCO3)ccn1` [Example 3, 4-(2,3-Dihydrobenzofuran-5-yl)-5-(2-methylpyridin-4-yl)-1H-imidazol-2-amine], the MIC in experiment [1], in experiment [2], in experiment [3], in experiment [4], in experiment [5] and in experiment [6] was 1 to 10 µM (≈ 0.292 to 2.92 µg/mL) throughout. Besides, the MIC was 1 to 10 µM (≈ 0.292 to 2.92 µg/mL) in experiment [7]; 1 to 10 µM (≈ 0.292 to 2.92 µg/mL) in [8]; more than 100 µM in experiment [9]; more than 100 µM in experiment [10]; 1 to 10 µM (≈ 0.292 to 2.92 µg/mL) in experiment [11]; not above 1 µM in experiment [12]. Moreover, the MIC in experiment [13] was not above 1 µM; in experiment [14], not above 1 µM; in [15], more than 100 µM; in [16], not above 1 µM; in experiment [18], not above 1 µM. Also, the half-inhibitory concentration (IC50) in experiment [17] is more than 100 µM.
`CNc1cc(-c2[nH]c(N)nc2-c2ccc3c(c2)CCO3)ccn1` [Example 9, 4-(2-Amino-4-(2,3-dihydrobenzofuran-5-yl)-1H-imidazol-5-yl)-N-methylpyridin-2-amine]: the MIC was not above 1 µM in experiment [1]; 1 to 10 µM (≈ 0.307 to 3.07 µg/mL) in experiment [2]; not above 1 µM in [3]; 1 to 10 µM (≈ 0.307 to 3.07 µg/mL) in [4]; 1 to 10 µM (≈ 0.307 to 3.07 µg/mL) in experiment [5]; 1 to 10 µM (≈ 0.307 to 3.07 µg/mL) in experiment [6]. Moreover, the minimal inhibitory concentration (MIC) was 1 to 10 µM (≈ 0.307 to 3.07 µg/mL) in [7]; 1 to 10 µM (≈ 0.307 to 3.07 µg/mL) in experiment [8]; more than 100 µM in [9]; more than 100 µM in [10]; 10 to 100 µM (≈ 3.07 to 30.7 µg/mL) in experiment [11]; not above 1 µM in experiment [12]. For the same compound, the MIC in experiment [13] was not above 1 µM; in [14] it was not above 1 µM; in experiment [15], more than 100 µM; in [16], not above 1 µM; in experiment [18], not above 1 µM. In addition, the IC50 in [17] was more than 100 µM.
With `Cc1cc(-c2[nH]c(N)nc2-c2ccc3c(c2)NCCO3)ccn1` [Example 27, 4-(3,4-Dihydro-2H-benzo[b][1,4]oxazin-6-yl)-5-(2-methylpyridin-4-yl)-1H-imidazol-2-amine], the minimum inhibitory concentration (MIC) in [1] is not above 1 µM; in experiment [2], 1 to 10 µM (≈ 0.307 to 3.07 µg/mL); in experiment [3], not above 1 µM; in [4], 1 to 10 µM (≈ 0.307 to 3.07 µg/mL); in [5] it was 1 to 10 µM (≈ 0.307 to 3.07 µg/mL); in [6], 1 to 10 µM (≈ 0.307 to 3.07 µg/mL). Also, the minimum inhibitory concentration (MIC) is 1 to 10 µM (≈ 0.307 to 3.07 µg/mL) in [7]; not above 1 µM in experiment [8]; more than 100 µM in experiment [9]; more than 100 µM in [10]; 1 to 10 µM (≈ 0.307 to 3.07 µg/mL) in experiment [11]; not above 1 µM in experiment [12]. Further, the MIC in [13] is not above 1 µM; in experiment [14] it was not above 1 µM; in experiment [15], more than 100 µM; in [16], not above 1 µM; in [18] it was not above 1 µM. Moreover, in [17], the IC50 is more than 100 µM.

The MIC is the smallest concentration in the dilution series that meets the test's criterion for growth inhibition. Broadly, the IC50 is the concentration at which inhibition is half-maximal.
